According to patent publication US10202406B2, “Boron cluster compounds and uses thereof” (priority 2011, dated 2019):
Entries after “also recorded” stand apart in the source; their conditions may differ.

What was measured:
mice [1] = test: Hot plate paw withdrawal latency after injection into a hind limb near the sciatic nerve; assay type: in vivo; conditions: 50 microliters of 10 mM injected into hind limb near sciatic nerve, 55° C. hot plate, about 30 min
Procedure: The test drugs, all at a volume of 50 microliters and a concentration of 10 mM, were injected into a hind limb near the sciatic nerve. The time it takes for the animals to withdraw the foot of the injected limb from touching a 55° C. hot plate is measured in seconds. This time is termed the paw withdrawal latency and is measured over about a 30 min time period. Data are expressed as means±standard error of the mean and n equals the number of animals used in FIG. 5(a)-(d).

[2] = biological target: T1, Nav1.2 voltage gated sodium channels (Homo sapiens, UniProt Q99250); test: Two electrode voltage clamp electrophysiology of voltage gated sodium channels expressed in Xenopus oocytes; assay type: cell-based; conditions: 0.3 mM in superfusate for two minutes then washed out; holding potential -50 mV; Nav1.2 in Xenopus oocytes
T1 construct: expressed in transfected cells; host or cells: Xenopus oocytes
Procedure: Nav1.2 voltage gated sodium channels were expressed in Xenopus oocytes and standard two electrode voltage clamp techniques were used to measure ionic currents through the channels after depolarizations from a holding potential of −50 mV. The test drugs, all at a concentration of 0.3 mM, were added to the superfusate for two minutes as indicated by the black bars and then washed out. […] Data are expressed as means±standard error of the mean and n equals the number of cells used in FIG. 4 (a)-(d).

mice [3] = test: Motor deficit testing, inverted screen test after injection; conditions: sensory block (hot plate) versus motor block (inverted screen test)
Procedure: Motor function was tested by observing the ability of the mice to walk hanging upside down from a screen, termed the inverted screen test.

T1 sequence (Q99250 whole entry): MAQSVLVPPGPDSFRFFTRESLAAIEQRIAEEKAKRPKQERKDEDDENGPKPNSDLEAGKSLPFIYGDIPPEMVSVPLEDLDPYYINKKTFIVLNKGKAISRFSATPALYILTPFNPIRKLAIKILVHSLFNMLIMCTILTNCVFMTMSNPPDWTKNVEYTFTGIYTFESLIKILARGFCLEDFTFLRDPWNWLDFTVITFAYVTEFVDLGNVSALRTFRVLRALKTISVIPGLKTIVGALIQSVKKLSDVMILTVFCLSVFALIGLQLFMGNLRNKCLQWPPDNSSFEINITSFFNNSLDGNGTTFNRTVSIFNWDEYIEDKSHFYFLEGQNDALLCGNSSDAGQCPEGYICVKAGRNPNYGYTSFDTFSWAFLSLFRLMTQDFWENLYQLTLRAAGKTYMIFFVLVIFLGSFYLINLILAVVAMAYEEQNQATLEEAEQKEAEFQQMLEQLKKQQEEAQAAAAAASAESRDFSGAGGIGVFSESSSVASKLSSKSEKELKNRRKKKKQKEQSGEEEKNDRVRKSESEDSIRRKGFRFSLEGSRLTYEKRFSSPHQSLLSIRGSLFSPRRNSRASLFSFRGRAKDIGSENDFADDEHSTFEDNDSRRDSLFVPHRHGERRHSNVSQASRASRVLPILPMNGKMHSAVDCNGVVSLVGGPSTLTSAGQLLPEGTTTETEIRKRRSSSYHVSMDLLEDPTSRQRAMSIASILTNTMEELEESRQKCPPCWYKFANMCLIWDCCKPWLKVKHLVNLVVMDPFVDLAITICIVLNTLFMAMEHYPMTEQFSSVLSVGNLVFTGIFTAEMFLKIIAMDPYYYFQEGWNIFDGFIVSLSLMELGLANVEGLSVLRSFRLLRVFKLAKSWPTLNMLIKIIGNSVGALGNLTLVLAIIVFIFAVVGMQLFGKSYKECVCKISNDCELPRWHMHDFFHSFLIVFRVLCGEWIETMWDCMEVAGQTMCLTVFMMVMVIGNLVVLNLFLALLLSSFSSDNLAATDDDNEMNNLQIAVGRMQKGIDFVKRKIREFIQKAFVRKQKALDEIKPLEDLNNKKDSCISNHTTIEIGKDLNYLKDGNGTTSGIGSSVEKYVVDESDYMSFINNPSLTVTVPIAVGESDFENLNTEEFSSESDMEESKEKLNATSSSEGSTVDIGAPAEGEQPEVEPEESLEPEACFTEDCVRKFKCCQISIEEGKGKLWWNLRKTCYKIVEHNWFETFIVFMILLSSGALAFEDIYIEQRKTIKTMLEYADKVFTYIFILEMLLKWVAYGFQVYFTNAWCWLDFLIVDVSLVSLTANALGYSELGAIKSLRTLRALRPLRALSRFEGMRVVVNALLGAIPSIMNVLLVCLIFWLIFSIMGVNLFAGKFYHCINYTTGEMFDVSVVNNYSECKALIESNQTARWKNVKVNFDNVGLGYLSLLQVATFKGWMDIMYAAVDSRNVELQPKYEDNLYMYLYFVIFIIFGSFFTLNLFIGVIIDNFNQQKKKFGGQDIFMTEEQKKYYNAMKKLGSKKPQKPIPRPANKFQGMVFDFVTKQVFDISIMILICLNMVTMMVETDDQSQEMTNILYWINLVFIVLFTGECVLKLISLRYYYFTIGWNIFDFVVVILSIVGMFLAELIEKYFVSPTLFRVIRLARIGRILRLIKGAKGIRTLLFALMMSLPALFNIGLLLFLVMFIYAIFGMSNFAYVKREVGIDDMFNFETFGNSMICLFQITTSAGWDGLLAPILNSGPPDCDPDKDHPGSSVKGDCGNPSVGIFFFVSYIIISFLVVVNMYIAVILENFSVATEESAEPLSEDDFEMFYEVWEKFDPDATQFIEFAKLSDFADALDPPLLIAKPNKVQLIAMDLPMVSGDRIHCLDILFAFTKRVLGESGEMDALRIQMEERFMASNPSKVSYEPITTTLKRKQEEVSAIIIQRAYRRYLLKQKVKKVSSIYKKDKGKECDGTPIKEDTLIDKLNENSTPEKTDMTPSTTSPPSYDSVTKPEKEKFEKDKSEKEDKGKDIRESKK

| Compound | analgesia / sensory block (paw withdrawal latency) (mice [1]) | block of voltage gated sodium channels (ionic currents) [2] | selectivity of block of sensory nerves over motor nerves (mice [3]) |
| --- | --- | --- | --- |
| CCN(CC)CC(=O)Nc1c(C)cccc1C [lidocaine, reference compound] | provide analgesia | block voltage gated sodium channels in a reversible manner |  |
| 2-Diethylaminoacetamido-1,12-closo-carborane [p-carborane lidocaine] | provide analgesia | block voltage gated sodium channels in a reversible manner | selectively blocked sensory nerves over motor nerves; also recorded: selective block of sensory nerves over motor nerves |
| 3-Diethylaminoacetamido-1,2-closo-carborane [o-carborane lidocaine] | provide analgesia | block voltage gated sodium channels in a reversible manner | selectively blocked sensory nerves over motor nerves; also recorded: selective block of sensory nerves over motor nerves |
| 9-Diethylaminoacetamido-1,7-closo-carborane [m-carborane lidocaine] | did not provide analgesia; also recorded: neither motor nor sensory block | block voltage gated sodium channels in a reversible manner |  |
